Experiments:
colorectal polyps = assay: PGE2 administration to DSS-treated Apc^Min/+Clec7a^-/- mice; assay type: in vivo, mouse
Procedure: (§1) FIG. 6e: 8-week-old Apc^Min/+Clec7a^−/− mice (n=3) were administered with 2% by mass of DSS for 1 week, and then were administered with PGE2 ([…]) or PBS intraperitoneally every other day for 4 weeks. After euthanization, generation of colorectal polyps in the Apc^Min/+Clec7a^−/− mice with or without PGE2 treatment was examined in comparison to that of the Apc^Min/+ mice (n=3/group).
as §1, with “6f:” for “6e:”, “without the” for “without”
FIG. 6g: 8-week-old Apc^Min/+Clec7a^−/− mice (n=3) were administered with 2% by mass of DSS for 1 week, and then were administered with PGE2 ([…]) or PBS intraperitoneally every other day for 4 weeks. After euthanization, populations of MHC-II^+CD11c^+DCs and MHC-II^−CD11b^+MDSCs in the polyps in the Apc^Min/+Clec7a^−/− mice were measured by flow cytometry (n=3/group).
FIG. 6h: 8-week-old Apc^Min/+Clec7a^−/− mice (n=3) were administered with 2% by mass of DSS for 1 week, and then administered with PGE2 ([…]) or PBS intraperitoneally every other day for 4 weeks. After euthanization, expression of indicated genes in the Apc^Min/+Clec7a^−/− mice was examined by qPCR (n=3/group).
Apc^Min/+ or Apc^Min/+Clec7a^−/− mice were normally raised in SPF condition for 19 to 21 weeks after being born, and polyps in small intestines emerged spontaneously. For the induction of colorectal tumor, same mice with 6 to 7 weeks old were treated with 1% by mass DSS for 1 week, and then were normally raised for another 4 to 5 weeks before sacrifice.

[1] = test system: intestinal polyp-infiltrating cells; assay: PGE2 stimulation of intestinal polyp-infiltrating cells of Apc^Min/+ mice, qPCR; assay type: cell-based, mouse; conditions: PGE2 20 hours
Procedure: FIG. 6i: Tumor-infiltrating cells of the Apc^Min/+ mice (n=2, cells that were pooled during collection) were collected, stimulated with indicated doses of PGE2 for 20 hours, and then the expression of indicated genes was measured by qPCR. The data are mean±SD of 3 wells.
(§2) Infiltrating cells in mouse/human colorectal tumor/non-tumor tissues (2×10^5) or mouse/human colorectal tumor/non-tumor tissue pieces (3 mm×3 mm cut) were cultured with Dectin-1 ligands Curdlan, OXCA, or laminarin, or with PGE2 stimulation for 20 h at 37° C. under 5% CO2 in 96-well flat-bottomed plates (Falcon, Becton Dickinson) in a volume of 0.2 ml RPMI containing 10% FBS and 1% streptomycin plus penicillin. After the culture, cells or tissues were collected and mRNA expression of tumor- or anti-tumor-associated genes was measured by qPCR described in Quantitative reverse transcription PCR section described later.
(§3) Total RNA was extracted with Mammalian Total RNA Miniprep kit (Sigma Aldrich). […]

CRC tumor tissues = assay: Human CRC tumor tissues cultured in the presence of PGE2, qPCR; assay type: cell-based
Procedure: FIG. 7i: Tumor tissues of CRC patients were collected, minced, and then cultured in the presence of PGE2 for 20 hours. Data are mean±SD of 3 wells. The data in (FIGS. 7g to 7i) are representative of two independent experiments. *p<0.05, **p<0.01, and ****p<0.0001.
as §2, §3

COX-2 = biological target: T1, COX-2 (Homo sapiens, UniProt P35354); conditions: cited from earlier work
T1 sequence (P35354 18-604): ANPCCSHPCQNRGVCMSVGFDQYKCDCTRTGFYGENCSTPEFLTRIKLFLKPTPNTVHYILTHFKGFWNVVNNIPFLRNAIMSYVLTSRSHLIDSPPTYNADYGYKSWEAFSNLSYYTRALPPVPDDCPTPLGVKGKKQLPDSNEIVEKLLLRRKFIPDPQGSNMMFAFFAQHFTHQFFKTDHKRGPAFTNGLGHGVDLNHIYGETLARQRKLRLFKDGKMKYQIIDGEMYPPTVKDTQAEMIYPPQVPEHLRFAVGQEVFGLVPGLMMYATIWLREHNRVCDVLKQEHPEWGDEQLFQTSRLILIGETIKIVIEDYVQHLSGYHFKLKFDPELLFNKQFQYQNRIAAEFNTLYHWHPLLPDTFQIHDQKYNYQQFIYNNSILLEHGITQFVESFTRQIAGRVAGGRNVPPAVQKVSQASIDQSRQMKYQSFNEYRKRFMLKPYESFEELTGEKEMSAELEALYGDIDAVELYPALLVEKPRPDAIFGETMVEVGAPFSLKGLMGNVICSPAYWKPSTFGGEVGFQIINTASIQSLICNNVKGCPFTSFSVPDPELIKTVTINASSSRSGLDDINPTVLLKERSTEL

Dectin-1 [2] = biological target: T2, Dectin-1 (Mus musculus, UniProt Q6QLQ4); assay: Stimulation of mouse colorectal polyp CD11b+ and CD11c+ cells with OXCA, with or without laminarin pre-treatment, qPCR; assay type: cell-based; conditions: laminarin for 3 hours before OXCA 16 hours
T2 construct: CD11b^+ cells and CD11c^+ cells were purified from colorectal polyps with autoMACS; endogenous in cells; host or cells: primary CD11b+/CD11c+ cells or all polyp-infiltrating cells from colorectal/intestinal polyps of WT (C57BL/6J, AOM-DSS) or Apc^Min/+ mice
T2 sequence (Q6QLQ4 1-244): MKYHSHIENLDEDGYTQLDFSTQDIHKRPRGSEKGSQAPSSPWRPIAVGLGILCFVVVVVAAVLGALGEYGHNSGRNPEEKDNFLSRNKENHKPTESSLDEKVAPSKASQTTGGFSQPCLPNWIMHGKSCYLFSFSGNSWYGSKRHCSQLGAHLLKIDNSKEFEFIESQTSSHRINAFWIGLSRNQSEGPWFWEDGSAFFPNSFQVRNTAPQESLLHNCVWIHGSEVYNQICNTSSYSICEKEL
Procedure: FIG. 2d: WT SPF mice were administered with AOM, followed by three cycles of DSS. After 11 weeks, the mice were sacrificed, and CD11b^+ cells and CD11c^+ cells were purified from colorectal polyps with autoMACS. The purified cells were stimulated with an agonistic β-glucan OXCA, or were treated with an antagonistic β-glucan laminarin for 3 hours followed by the stimulation with OXCA for 16 hours, and the expression of Il6 and Il1b was measured by qPCR. The data in (FIGS. 2a to 2d) are representative of two independent experiments, and the data in (FIGS. 2a, 2b, and 2d) are expressed as mean±SD. *p<0.05, **p<0.01, ***p<0.001, and ****p<0.0001.
FIG. 4h: C57BL/6J mice were administered with AOM, and were administered with DSS for three cycles. […] The cells were then stimulated with OXCA and expression of Il-22 bp was measured by qPCR. […] The data in (FIG. 4a and FIGS. 4d to 4h) are representative of two independent experiments, and the data in (FIGS. 4a, 4d, and 4f to 4h) are expressed as mean±SD. **p<0.01, ***p<0.001, and ****p<0.0001.
FIG. 11d: WT mice administered with AOM followed by DSS for three cycles for 12 weeks were sacrificed, and colon CD11b^+ and CD11c^+ myeloid-derived cells were purified by autoMACS. […] The data in (FIGS. 11a, 11c, and 11d) are expressed as mean±SD. *p<0.05, **p<0.01, and ***p<0.001. […]

Dectin-1 [3] = biological target: T2, Dectin-1; assay: Stimulation of Apc^Min/+ polyp-infiltrating leukocytes / CD11b+ cells with Curdlan, with or without laminarin pre-treatment, qPCR; assay type: cell-based; conditions: laminarin 4 hours before Curdlan, polyp-infiltrating leukocytes
Procedure: (§4) FIG. 5f: All polyp-infiltrating cells of the Apc^Min/+ mice were collected, and were stimulated with Curdlan for 20 hours, and then the expression of the genes involved in the PGE2 synthesis was measured by qPCR. A laminarin treatment was performed for 4 hours before the Curdlan treatment.
as §4, with “5g: Purified CD11b^+” for “5f: All”, “treatment. The data in (FIGS. 5a to 5g) are representative of two independent experiments and expressed as mean±SD. *p<0.05, **p<0.01, and ***p<0.001.” for “treatment.”
as §2, with “later. […]” for “later.”

[4] = test system: AOM-DSS-induced colorectal polyps; assay: AOM-3DSS colorectal tumor model, diet supplemented with 5% laminarin; assay type: in vivo, mouse
Procedure: FIG. 6a: Oral administration of laminarin suppresses tumor formation in the large intestine, and PGE2 administration promotes tumor formation. AOM was administered to C57BL/6J mice, and 5% by mass of laminarin-containing powdered food was administered (continued for 10 days/cycle) from 3 days before to the end of the one-week administration of DSS, for three cycles in total. At Week 11 from the first AOM administration, the mice were sacrificed and the generation of tumors in the large intestines was observed macroscopically (n=7/group).
FIG. 6b: AOM was administered to C57BL/6J mice, and 5% by mass of laminarin-containing powdered food was administered (continued for 10 days/cycle) from 3 days before to the end of the one-week administration of DSS, for three cycles in total. At Week 11 from the first AOM administration, the mice were sacrificed and the number of the colorectal polyps with indicated sizes was counted (n=7/group).
FIG. 6c: AOM was administered to C57BL/6J mice, and 5% by mass of laminarin-containing powdered food was administered (continued for 10 days/cycle) from 3 days before to the end of the one-week administration of DSS, for three cycles in total. The mice were sacrificed at Week 11 after the first AOM administration and the concentration of PGE2 in tissue homogenates was measured by the ELISA (n=7/group).
FIG. 6d: AOM was administered to C57BL/6J mice, and 5% by mass of laminarin-containing powdered food was administered (continued for 10 days/cycle) from 3 days before to the end of the one-week administration of DSS, for three cycles in total. The mice were sacrificed at Week 11 from the first AOM administration and an mRNA expression of CD11b (Itgam) was examined by qPCR (n=7/group). […]
Polyp and non-polyp tissues from mouse colon were harvested and were put into 2 ml tubes containing 500 μl lysis buffer for protein [RIPA buffer. […] After being centrifuged, supernatant of the tissue homogenate was collected and PGE2 concentration was measured by ELISA Development Kit for PGE2 (R&D systems, Minneapolis, USA). […]

[5] = after PGE2 administration, flow cytometry
[6] = after PGE2 administration, qPCR

For CCCCC[C@H](O)/C=C/[C@H]1[C@H](O)CC(=O)[C@@H]1C/C=C\CCCC(=O)O [PGE2, prostaglandin E2], which polyp number (colorectal polyps; PGE2 intraperitoneally every other day for 4 weeks, DSS-treated Apc^Min/+Clec7a^-/- mice) is on record?
Its polyp number is “increased to the similar level of that in Apc^Min/+ mice”.

And the “infiltration of CD11b+ MDSCs in polyps” value (colorectal polyps; [5])?
The value was “promoted”.

What about the “infiltration of CD11c+ DCs and T cells in polyps” value (colorectal polyps; [5]) of the same molecule?
The value was “suppressed”.

And the Il-22 bp expression (colorectal polyps; [6])?
Its Il-22 bp expression is “suppressed”.

And the “expression of CD11b (Itgam), Arginase-1 (Arg1), Cyclin D1 (Ccnd1) and c-Myc (Myc)” value (colorectal polyps; [6])?
The value was “enhanced”.

What about the Il-22 bp expression [1] of the same molecule?
Its Il-22 bp expression is “directly inhibited”.

And the “expression of MDSC markers Arg1, CD11b and Nos2” value [1]?
The value was “directly induced”.

And the “expression of CD33 and CD11B (ITGAM)” value (CRC tumor tissues; PGE2 20 hours in vitro)?
The value was “directly induced”.

What about the “human IL-22BP expression” value (CRC tumor tissues; PGE2 20 hours, dose-dependent) of the same molecule?
Its value is “suppressed”.

Which “occurrence or progression of colorectal cancer and polyps” value (COX-2) does the source give for CC(=O)Oc1ccccc1C(=O)O [aspirin] here?
The value was “can reduce”.

For Laminarin, which “effect on OXCA-induced Il6 and Il1b expression” value (Dectin-1 [2]) is on record?
The value was “inhibited”.

What about the “effect on Curdlan-induced Ptges3, Ptgs1 and Ptgs2 expression” value (Dectin-1 [3]) of the same molecule?
The value was “inhibited”.

What about the “burden of colorectal polyps versus control mice” value ([4]; 5% laminarin diet during 3 cycles of DSS, WT mice, AOM-3DSS) of the same molecule?
Its value is “significantly lower”.

What about the “intestinal PGE2 production (tissue homogenate, ELISA)” value ([4]; 5% laminarin diet, AOM-3DSS mice) of the same molecule?
The value was “suppressed”.

What about the “CD11b (Itgam) expression” value ([4]; 5% laminarin diet, AOM-3DSS mice, qPCR) of the same molecule?
Its value is “reduction”.

— patent US20250057873A1, “Intestinal Tumor Suppressor, PGE2 Production Inhibitor, and IL-22BP Production Promoter” (TOKYO UNIVERSITY OF SCIENCE FOUNDATION, priority 2021, published 2025)
